According to BigSolDB 2.1:

Settings: in NMP

O=C1OC(=O)[C@H]2[C@@H]1[C@@H]1C=C[C@H]2C1
Settings | solubility (mole fraction)
278.15 K | 0.112
283.15 K | 0.126
288.15 K | 0.14
293.15 K | 0.156
298.15 K | 0.172
303.15 K | 0.19
308.15 K | 0.209
313.15 K | 0.225
318.15 K | 0.245
323.15 K | 0.265
